Our source for the IC50 values is US20230002393A1, “CDK KINASE INHIBITOR” (BEIJING BENICALL BIOTECH CO., LTD., priority 2019, published 2023).

In assay [1] the target is T1, CDK6/CyclinD1 (Homo sapiens, UniProt Q00534).
T1 construct: purchased Carna 04-114
As to the kind of experiment: In vitro cell-free CDK6/CyclinD1 kinase activity assay (TR-FRET). The class given is biochemical. The settings on record: ATP at Km. As for the experimental part: It should be noted that the assay can also be conducted by a similar method. The assay steps in this Test Example are as follows:
The CDK6/CyclinD1 kinase activity was determined using a time-resolved fluorescence resonance energy transfer (TR-FRET) method. Measurements were performed in a reaction volume of 20 μL using 384-well assay plates. […] The reaction was stopped by adding a mixture of a peptide antibody (trade name: Cisbio, product No. 64CUSKAY) and Sa-XL665 (trade name: Cisbio, product No. 610SAXLB) diluted in HTRF KinEASE detection buffer (trade name: Cisbio, product No. 62SDBRDF, containing EDTA). After the mixture was incubated for 1 hour at room temperature, the plate was read. The TR-FRET signal was measured on a multimode plate reader (EnVision™, a multi-function microplate detector, PerkinElmer) at an excitation wavelength (λEx) of 330 nm and detection wavelengths (λEm) of 615 and 665 nm. The activity was determined by the ratio of fluorescence at 665 nm to that at 615 nm. For each compound, the enzyme activities of different concentrations of the compound were measured to determine IC50. The negative control contained no inhibitor. Two no-enzyme controls were used to determine baseline fluorescence levels. IC50 was obtained by fitting using the GraphPad 6.02 software.
8-10 concentrations were prepared for each compound, and formulated in DMSO. The stock concentration was 200× the working concentration. For example, if the working concentration was 100 nM, the corresponding concentration of the formulated stock solution was 20 μM.
In the analysis of in vitro inhibitory activity on CDK kinase, the IC50 value of each of the Example compounds and Reference Example compounds was determined.

Assay [2] concerns MCF-7 cells. Nature of the assay: Cell viability assay, MCF-7 cells (CellTiter-Glo, 168 h). The class given is cell-based. As to conditions: Homo sapiens, MCF7. As for the experimental part: An in vitro cell viability assay was conducted using some Example compounds following the steps below:
1. After recovery, MCF-7 cells (obtained from the Shanghai Cell Bank of the Chinese Academy of Sciences) were cultured at 37° C., 5% CO2, and 95% humidity.
2. 8 compound solutions at different concentrations were prepared for each Example compound. 50 μL of the compound solution at each concentration was added to a 96-well black plate.
3. The cell concentration was adjusted to about 30,000 cells/mL. 100 μL of the cell suspension was added to the 96-well plate, and mixed well to a final cell density of about 3,000 cells/well.
4. The 96-well plate was incubated at 37° C., 5% CO2, and 95% humidity for 168 h, i.e., 7 days.
5. The cell survival rate was measured by the method of CellTiter-Glo® Luminescent Cell Viability Assay (Promega, Cat #G7572). The fluorescence data were read on a microplate reader (EnVision™, a multi-function microplate detector, PerkinElmer).
6. The obtained fluorescence data were analyzed using the GraphPad Prism software. The cell survival rate was calculated for each Example compound at each concentration, and the IC50 interval of each Example compound was determined.
For orientation: Cellular ATP, detected with luciferase, serves as a proxy for viable cell number.

Each structure is given as a SMILES string.

T1 sequence (Q00534 whole entry): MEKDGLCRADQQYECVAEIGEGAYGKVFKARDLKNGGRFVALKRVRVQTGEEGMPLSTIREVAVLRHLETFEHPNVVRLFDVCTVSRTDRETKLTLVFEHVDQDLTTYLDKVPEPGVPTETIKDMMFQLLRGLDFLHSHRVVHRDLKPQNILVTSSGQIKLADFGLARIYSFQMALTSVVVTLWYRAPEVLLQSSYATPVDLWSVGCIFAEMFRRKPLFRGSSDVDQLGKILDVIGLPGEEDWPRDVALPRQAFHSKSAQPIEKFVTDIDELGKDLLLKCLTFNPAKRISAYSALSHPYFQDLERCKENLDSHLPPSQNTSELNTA
T1 sequence (P24385 whole entry partner): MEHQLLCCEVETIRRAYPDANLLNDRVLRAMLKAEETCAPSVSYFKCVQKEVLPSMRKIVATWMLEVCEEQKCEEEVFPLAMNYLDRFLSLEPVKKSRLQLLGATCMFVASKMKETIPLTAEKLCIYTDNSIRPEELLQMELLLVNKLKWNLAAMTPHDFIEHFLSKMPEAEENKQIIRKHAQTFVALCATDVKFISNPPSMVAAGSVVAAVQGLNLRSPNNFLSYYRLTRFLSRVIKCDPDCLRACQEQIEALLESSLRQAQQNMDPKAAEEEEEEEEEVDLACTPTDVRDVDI

In the case of `COc1cc(F)ccc1-c1c(C#N)cc2cnc(Nc3ccc(N4CCNCC4)cc3)nn12` [Example 11], the IC50 in assay [1] was < 0.1 µM; in assay [2], < 0.5 µM.
For `N#Cc1cc2cnc(Nc3ccc(N4CCNCC4)cc3)nn2c1-c1cccnc1` [Example 12] the same measures were < 0.1 µM and < 0.5 µM.
As to `N#Cc1cc2cnc(Nc3ccc(N4CCNCC4)cc3)nn2c1-c1ccc(F)cc1` [Example 13], the results for the IC50 in assay [1] and in assay [2] were < 0.1 µM and < 0.5 µM, respectively.
On the same counts, the results for `N#Cc1cc2cnc(Nc3ccc(N4CCNCC4)cc3)nn2c1-c1ccc2ccccc2c1` [Example 14] are < 0.1 µM and < 0.5 µM.
For the compound `N#Cc1cc2cnc(Nc3ccc(N4CCNCC4)cc3)nn2c1-c1cccc2cccnc12` [Example 15], the IC50 in assay [1] is 0.1 to 1 µM; in assay [2], < 0.5 µM.
For `N#Cc1cc2cnc(Nc3ccc(N4CCNCC4)cc3)nn2c1N1CCC2(CCNCC2)CC1` [Example 16] the same measures were < 0.1 µM and 0.5 to 2.5 µM.
On the same counts, the results for `N#Cc1cc2cnc(Nc3ccc(N4CCNCC4)cc3)nn2c1N1CCC2(CCCCC2)C1` [Example 17] are < 0.1 µM and < 0.5 µM.
For `COc1ccc(-c2c(C#N)cc3cnc(Nc4ccc(N5CCNCC5)cc4)nn23)cn1` [Example 18] the same measures were < 0.1 µM and < 0.5 µM.
With `COc1ccc(-c2c(-c3cnn(C)c3)cc3cnc(Nc4ccc(N5CCNCC5)cn4)nn23)cc1` [Example 19], the IC50 is < 0.1 µM in assay [1] and 0.5 to 2.5 µM in assay [2].
On the same counts, the results for `Cc1noc(C)c1-c1cc2cnc(Nc3ccc(N4CCNCC4)cn3)nn2c1-c1ccc(F)cc1` [Example 20] are 0.1 to 1 µM and 0.5 to 2.5 µM.
On the same counts, the results for `Cc1noc(C)c1-c1cc2cnc(Nc3ccc(N4CCNCC4)cn3)nn2c1C1=CCCC1` [Example 21] are 0.1 to 1 µM and 0.5 to 2.5 µM.
For `Cc1nn(C)cc1-c1cc2cnc(Nc3ccc(N4CCNCC4)cn3)nn2c1C1=CCCC1` [Example 23] the same measures were 0.1 to 1 µM and < 0.5 µM.
In the case of `N#Cc1cc2cnc(Nc3ccc(N4CCNCC4)cn3)nn2c1-c1ccc(Cl)cc1` [Example 24], the IC50 in assay [1] is < 0.1 µM; in assay [2], < 0.5 µM.
On the same counts, the results for `N#Cc1cc2cnc(Nc3ccc(N4CCNCC4)cn3)nn2c1C1=CCCC1` [Example 25] are < 0.1 µM and < 0.5 µM.
For `N#Cc1cc2cnc(Nc3ccc(N4CCNCC4)cn3)nn2c1N1CCCC1` [Example 26] the same measures were < 0.1 µM and < 0.5 µM.
For `N#Cc1cc2cnc(Nc3ccc(N4CCNCC4)cn3)nn2c1-c1cccnc1` [Example 27] the same measures were 0.1 to 1 µM and 2.5 to 10 µM.
Turning to `CN(C)C(=O)c1cc2cnc(Nc3ccc(N4CCNCC4)cn3)nn2c1C1=CCCC1` [Example 28], the IC50 in assay [1] was < 0.1 µM; in assay [2], < 0.5 µM.
On the same counts, the results for `CN(C)C(=O)c1cc2cnc(Nc3ccc(N4CCNCC4)cn3)nn2c1N1CCCC1` [Example 29] are < 0.1 µM and < 0.5 µM.
For `N#Cc1cc2cnc(Nc3ccc(N4CCNCC4)cn3)nn2c1C1=CCC(=O)CC1` [Example 30] the same measures were 0.1 to 1 µM and 2.5 to 10 µM.
On the same counts, the results for `CN(C)C(=O)c1cc2cnc(Nc3ccc(N4CCNCC4)cn3)nn2c1N1CCCCC1` [Example 31] are < 0.1 µM and < 0.5 µM.
Take `CN(C)C(=O)c1cc2cnc(Nc3ccc(N4CCNCC4)cn3)nn2c1-c1ccc(F)cc1` [Example 32]: the IC50 in assay [1] is < 0.1 µM; in assay [2] it was < 0.5 µM.
For `CN(C)C(=O)c1cc2cnc(Nc3ccc(N4CCC5(CCNCC5)CC4)cn3)nn2c1C1=CCCC1` [Example 33] the same measures were < 0.1 µM and < 0.5 µM.
On the same counts, the results for `CN(C)C(=O)c1cc2cnc(Nc3ccc(N4CCNCC4)cn3)nn2c1-c1ccc(Cl)cc1` [Example 34] are < 0.1 µM and < 0.5 µM.
Regarding `CN(C)C(=O)c1cc2cnc(Nc3ccc(N4CCC5(CC4)CC5)cn3)nn2c1C1=CCCC1` [Example 35], the IC50 in assay [1] was 0.1 to 1 µM; in assay [2], 0.5 to 2.5 µM.
On the same counts, the results for `CN(C)C(=O)c1cc2cnc(Nc3ccc(N4CCC5(CC4)OCCO5)cn3)nn2c1C1=CCCC1` [Example 37] are < 0.1 µM and 0.5 to 2.5 µM.
On the same counts, the results for `CN(C)C(=O)c1cc2cnc(Nc3ccc(N4CCC5(CC4)COC5)cn3)nn2c1C1=CCCC1` [Example 38] are < 0.1 µM and < 0.5 µM.
For `CN(C)C(=O)c1cc2cnc(Nc3ccc(N4CC5(CCNC5)C4)cn3)nn2c1C1=CCCC1` [Example 39] the same measures were < 0.1 µM and < 0.5 µM.
As for `CN(C)C(=O)c1cc2cnc(Nc3ccc(N4CC5(CNC5)C4)cn3)nn2c1C1=CCCC1` [Example 40], the IC50 is < 0.1 µM in assay [1] and < 0.5 µM in assay [2].
On to `CN(C)C(=O)c1cc2cnc(Nc3ccc(N4CCC5(CC4)CNC5)cn3)nn2c1C1=CCCC1` [Example 41], for which the values for the IC50 in assay [1] and in assay [2] were < 0.1 µM and < 0.5 µM, respectively.
For `COc1ccc(-c2c(C(=O)N(C)C)cc3cnc(Nc4ccc(N5CCNCC5)cn4)nn23)cc1` [Example 42] the same measures were < 0.1 µM and < 0.5 µM.
Turning to `CN(C)C(=O)c1cc2cnc(Nc3ccc(N4CCC5(CCNCC5)C4)cn3)nn2c1-c1ccc(Cl)cc1` [Example 43], the concentration for half-maximal inhibition (IC50) in assay [1] was < 0.1 µM; in assay [2], 0.5 to 2.5 µM.
For `CN(C)C(=O)c1cc2cnc(Nc3ccc(N4CCC5(CC4)CNC5)cn3)nn2c1-c1ccc(Cl)cc1` [Example 44] the same measures were < 0.1 µM and < 0.5 µM.
For the compound `CN(C)C(=O)c1cc2cnc(Nc3ccc(N4CCNC5(CC5)C4)cn3)nn2c1-c1ccc(Cl)cc1` [Example 45], the IC50 is < 0.1 µM in assay [1] and 0.5 to 2.5 µM in assay [2].
For `CN(C)C(=O)c1cc2cnc(Nc3ccc(N4CC5(CCNC5)C4)cn3)nn2c1-c1ccc(Cl)cc1` [Example 46] the same measures were < 0.1 µM and < 0.5 µM.
For `COCCOc1ccc(-c2c(C(=O)N(C)C)cc3cnc(Nc4ccc(N5CCNC6(CC6)C5)cn4)nn23)cc1` [Example 47], the IC50 in assay [1] is < 0.1 µM; in assay [2], 2.5 to 10 µM.
On the same counts, the results for `COCCOc1ccc(-c2c(C(=O)N(C)C)cc3cnc(Nc4ccc(N5CC6(CCNC6)C5)cn4)nn23)cc1` [Example 49] are < 0.1 µM and 0.5 to 2.5 µM.
On the same counts, the results for `COCCOc1ccc(-c2c(C(=O)N(C)C)cc3cnc(Nc4ccc(N5CCC6(CCNCC6)C5)cn4)nn23)cc1` [Example 50] are < 0.1 µM and 2.5 to 10 µM.
As to `O=C1CCCN1c1cc2cnc(Nc3ccc(N4CCNCC4)cn3)nn2c1-c1ccc(Cl)cc1` [Example 51], the results for the IC50 in assay [1] and in assay [2] were 0.1 to 1 µM and 0.5 to 2.5 µM, respectively.
On the same counts, the results for `O=C1CCCN1c1cc2cnc(Nc3ccc(N4CCNCC4)cn3)nn2c1C1=CCCC1` [Example 52] are 0.1 to 1 µM and 2.5 to 10 µM.
On the same counts, the results for `COc1cc(F)ccc1-c1c(-c2cnn(C)c2)cc2cnc(Nc3ccc(N4CCNCC4)cn3)nn12` [Example 53] are 0.1 to 1 µM and 0.5 to 2.5 µM.
`Cn1cc(-c2cc3cnc(Nc4ccc(N5CCNCC5)cn4)nn3c2-c2ccncc2)cn1` [Example 54]: the values for the IC50 in assay [1] and in assay [2] were < 0.1 µM and 0.5 to 2.5 µM, respectively.
On the same counts, the results for `Cn1cc(-c2cc3cnc(Nc4ccc(N5CCNCC5)cn4)nn3c2N2CCCC2)cn1` [Example 55] are < 0.1 µM and < 0.5 µM.
For `COCCOc1ccc(-c2c(C(=O)N(C)C)cc3cnc(Nc4ccc(N5CCNCC5)cn4)nn23)cc1` [Example 57] the same measures were < 0.1 µM and 0.5 to 2.5 µM.
For `CN(C)C(=O)c1cc2cnc(Nc3ccc(N4CCNCC4)cn3)nn2c1-c1ccncc1` [Example 58], the IC50 in assay [1] is < 0.1 µM; in assay [2] it was 2.5 to 10 µM.
On the same counts, the results for `COc1cc(F)ccc1-c1c(C(=O)N(C)C)cc2cnc(Nc3ccc(N4CCNCC4)cn3)nn12` [Example 59] are < 0.1 µM and 0.5 to 2.5 µM.
As for `CN(C)C(=O)c1cc2cnc(Nc3ccc(N4CCNCC4)cn3)nn2c1-c1ccc(O)cc1` [Example 60], the IC50 was < 0.1 µM in assay [1] and 2.5 to 10 µM in assay [2].

As usually defined, the IC50 is the concentration needed to halve the response being measured. The low end stands for higher potency, the high end for lower potency.
